Experimental data published in PubChem BioAssay AID720668 (NMMLSC, 2013).
The source made the active and inactive calls.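 How the source made its calls: active means MAPK inhibition above 50%; inactive means inhibition below 50%.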

These molecules were tested on ERK MAP kinase activity (EKAR reporter), human (assay: blockers of ERK reporter and Cdc25C phosphorylation – TALL-104 cells, EKAR, flow cytometry, CherryPick01, mechanism study for lytic granule exocytosis inhibitor project, late-stage follow-up (AID 720668)). Conditions: EKAR/pCdc25C flow cytometry, PMA/thapsigargin, at 30 µM, active compounds read high.

| SMILES | inhibition |
| --- | --- |
| O=c1c2ccccc2sn1-c1ccccc1 | -1.6% (inactive) |
| COc1ccc(-c2cc(NC=O)c3ncc(-c4cccc(OC)c4)n3c2)cc1 | -34.2% (inactive) |
| O=C(Cn1sc2ccccc2c1=O)NC12CC3CC(CC(C3)C1)C2 | 29.8% (inactive) |
| CC1COCC(C)N1C1=C(Cl)C(=O)c2ccccc2C1=O (configuration not stated) | -52.7% (inactive) |
| COc1ccc(N2C(=O)CC(Sc3nnc(-c4ccccc4)o3)C2=O)cc1 (configuration not stated) | -4% (inactive) |
| CCCCC[C@@H](C)N1C[C@@H](COCc2ccccc2)Oc2cc(N3CC[C@H](N(C)C)C3)ccc2S1(=O)=O | 6.3% (inactive) |
| CCN(CC)CCCNc1ccc(-c2nnc(-c3ccc(OCC(C)C)cc3)o2)cn1 | -20.8% (inactive) |
| O=C(Cn1sc2ccccc2c1=O)Nc1ccc(F)cc1 | 4.6% (inactive) |
| CC(C)(c1ccccc1)c1ccc(OCC(O)CNC2CCN(Cc3ccccc3)CC2)cc1 (configuration not stated) | -13.5% (inactive) |
| COC(=O)c1c(NC(=O)c2nc3ccccc3s2)sc2c1CC(C)(C)NC2(C)C | 14.4% (inactive) |
| CCCCC[C@@H](C)N1C[C@@H](COCc2ccccc2)Oc2cc(N3CC[C@@H](N(C)C)C3)ccc2S1(=O)=O | 7.3% (inactive) |
| Cc1ccc(Nc2nc(NCc3ccco3)c3ccccc3n2)cc1 | -6.4% (inactive) |
| CN(C)CCNC(=O)c1ccc(-c2cn3c(-c4ccc(Oc5ccccc5)cc4)cnc3cn2)cc1 | -6.6% (inactive) |
| Cc1ccc(S(=O)(=O)n2ccc3c(OCCOCCNCc4ccc(F)cc4)cccc32)cc1 | -15.1% (inactive) |
| COc1ccc(-n2sc3ccccc3c2=O)cc1 | 13.3% (inactive) |
| CC1=NOC(=O)/C1=C/c1ccc(-c2ccc(Cl)cc2)o1 | 16.5% (inactive) |
| O=c1c2ccc(F)cc2sn1-c1ccccc1 | 21.5% (inactive) |
| COc1ccccc1CNc1nc(NCc2ccc(C(C)C)cc2)c2sccc2n1 | -9.9% (inactive) |
| CCCCC[C@@H](C)N1C[C@H](COCc2ccccc2)Oc2cc(N3CC[C@@H](N(C)C)C3)ccc2S1(=O)=O | -5.3% (inactive) |
| O=CNc1cc(-c2ccsc2)cn2c(-c3ccccc3)cnc12 | -19% (inactive) |
| O=C(CN1C(=O)/C(=C\c2cccc(Br)c2)Oc2ccccc21)NCCCN1CCOCC1 | -3.6% (inactive) |
| COc1ccc(-c2cc(NC=O)c3ncc(-c4ccccc4)n3c2)cc1OC | -19.8% (inactive) |
